The values below come from patent US10667516B2, “Use of 3-isoxazolidinones as selective herbicides in grass and Brassica crops” (FMC Corporation, priority 2011, dated 2020).

The data set has as its system chickweed. The data set can be described thus: Volatility evaluation (phytotoxic injury of chickweed by volatilization from treated soil). Conditions: formulations containing the non-encapsulated compound. The source says: Chickweed is very sensitive to clomazone and is a good indicator for bleaching compound volatility. […] These formulations are the reference standards against which the experimental formulations are compared. Four inch plastic pots were fitted with a basket style coffee filter, cut to size, placed in the bottom of each pot to cover the drainage holes and to stop soil from exiting the bottom of the pot. Each pot was filled with sandy loam soil that was sieved using a #10 mesh sieve to remove any large soil particles and debris. Filled soil pots were lightly watered prior to treatment application. The test solutions were applied to the soil surface using the DeVries Generation III sprayer, two replicates per test solution, at a rate of 0.25 g ai/ha. Each replicate test was set-up by placing an empty four inch plastic pot onto a greenhouse bench. Pots containing mature chickweed, about 2 inches in height, were placed around the empty pot in an eight spoke pattern. […] The untreated chickweed plants were evaluated for phytotoxic injury at 14 days after treatment. Volatility was evaluated by measuring the distance (cm) from the center of the treated soil pot to the distal point where bleaching effects were observed on each spoke. All eight spokes for each treatment were evaluated. The amount of volatility was determined by calculating the total square centimeters of phytotoxic injury per treatment. […]

`CC1(C)CON(Cc2cc(Cl)ccc2Cl)C1=O` [2,5-Cl, 2-(2,5-dichlorophenyl)methyl-4,4-dimethyl-3-isoxazolidone]: the “control of volatility compared to the non-encapsulated clomazone formulation” value is listed as “significant control of volatility”.

Turning to `CC1(C)CON(Cc2ccc(Cl)cc2Cl)C1=O` [2,4-Cl, 2-(2,4-dichlorophenyl)methyl-4,4-dimethyl-3-isoxazolidone], the “control of volatility compared to the non-encapsulated clomazone formulation” value is on record as “significant control of volatility”.
